Consider one molecule from article PMC12866797, “Targeting DESI2 as a Novel Therapeutic Strategy for JAK2‐Mutant Leukemias” (Advanced Science, 2025).

One assay addresses JOSD1 (Homo sapiens, UniProt Q15040). Nature of the assay: Ub-Rho fluorescence assay. Type of assay: biochemical.
Assay [1] addresses T1, DESI2 (Homo sapiens, UniProt Q9BSY9).
T1 construct: residues 1-194, pET28a vector, E. coli BL21 (DE3), Ni-NTA purified
Nature of the assay: Ub-AMC fluorescence assay, initial rate. In kind it is biochemical.

In assay [2] the target is T1, DESI2. Nature of the assay: thermal shift assay. Type of assay: binding. The conditions noted are these: 100 µM compound.

SMILES strings stand for the structures. A value given as a limit tells only on which side of the number the result lay.

T1 sequence (Q9BSY9 whole entry, the tested form may be a part): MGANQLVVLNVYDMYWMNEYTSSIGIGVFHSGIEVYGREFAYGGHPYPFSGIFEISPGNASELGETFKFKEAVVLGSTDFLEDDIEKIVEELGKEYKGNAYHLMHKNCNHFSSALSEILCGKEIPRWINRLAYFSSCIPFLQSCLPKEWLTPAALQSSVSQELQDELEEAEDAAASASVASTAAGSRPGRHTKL

For `N#CN1CC[C@H](C(=O)Nc2nc3cc(-c4ccc5c(c4)OCO5)ccc3s2)C1` [WWQ-03-012], the IC50 (usually the concentration needed to halve the response being measured) against JOSD1 was more than 10000 nM; at DESI2 [1], 47.3 nM. Further, at DESI2 [2], the dTm was determined as 3.5 °C.
